Patent US20250186411A1, “Methods of Treating Disorders Associated with Overactivation of IKKB” (The United States Government as represented by the …, priority 2023, published 2025)

Experiments:
[1] = test system: KLF15 promoter (pEZX-FR03hKLF15p human podocytes); assay: KLF15 reporter high-throughput screening assay in human podocytes (firefly/renilla luciferase); type: cell-based; settings: for fold induction at 1 µM: Homo sapiens, NCI library hits, 24 hours, read-out: Fold Change (KLF15 reporter activity)
Experimental: Briefly, these podocytes proliferate under permissive conditions (gamma interferon at 33° C.), but differentiate under nonpermissive conditions (37° C.).
The amplified fragment contains MluI and PmeI RE sites and was subcloned into the MluI and PmeI cloning site of the pEZX-FR03 Firefly luciferase (FLuc) and Renilla luciferase (Rluc) reporter cloning vector (GeneCopoeia) to generate pEZX-FR03hKLF15p. Following verification of the sequence by restriction and μsequencing, the pEZX-FR03hKLF15p construct (which contains a puromycin resistance cassette) was transfected into human podocytes followed by selection in puromycin-containing media for 2 weeks. Surviving podocytes clones were pooled together for further analysis.
The library of compounds from the National Cancer Institute (Approved Oncology Drugs Set VI; Natural Products Set III; Diversity Set V; and Mechanistic Diversity Set II) were added to a final concentration of 1 μM in 0.5% DMSO in the low FBS cell culture media (0.2% FBS) using liquid handling system PipetMax (Gilson). After 24 hours incubation at 37° C., the Luc-Pair™ Duo-Luciferase HT Assay Kit (GeneCopoeia LF015) were used and firefly and renilla luciferase activity was determined using the SpectraMax M3 (Molecular Devices). Positive controls were all-trans retinoic acid (atRA) (1 μM) and dexamethasone (DEX) (1 μM). Negative controls were DMSO and cell-free media.
(§1) To identify small molecule inducers of KLF15 expression in human podocytes, human podocytes were generated with a dual reporter, firefly luciferase directed at the KLF15 promoter region and renilla luciferase (pEZX-FR03hKLF15p). […] The positive controls were inducers of KLF15 expression, dexamethasone (DEX) and all-trans retinoic acid (atRA), and […] and cell-free wells served as negative controls.

[2] = test system: KLF15 promoter with mutation in the GRE (pEZX-FR03hKLF5p-mutant podocytes); assay: GR-mutant KLF15 reporter assay; type: cell-based, human; settings: as compared to DMSO
[3] = test system: KLF15 promoter (pEZX-FR03hKLF5p human podocytes); assay: Lipopolysaccharide treatment in human podocytes, KLF15 reporter activity; type: cell-based; settings: as compared to DMSO
Experimental: (§2) Differentiated pEZX-FR03hKLF5p human podocytes were treated with 25 μg/ml lipopolysaccharide (LPS) or vehicle and 1 μM KLF15 agonist or vehicle control for 24 hours. Firefly and renilla luciferase assay were measured initially to determine relative KLF15 reporter activity.

human podocytes = assay: Cell viability of podocytes (renilla activity, MTS assay); type: cell-based; settings: for toxicity to human podocytes: analogue screen
Experimental: as §2
(§3) Differentiated pEZX-FR03hKLF5p human podocytes were treated with 0.4 μg/ml adriamycin (ADR) or vehicle and 1 μM KLF15 agonist or vehicle control for 24 hours. Firefly and renilla luciferase assay were measured initially to determine relative KLF15 reporter activity.
To assess cell viability, the CellTiter 96® AQueous One Solution Reagent (Promega) was added to the culture media and plates were incubated for 2 hours at 37° C. with 5% CO2.

[4] = test system: KLF15 promoter (pEZX-FR03hKLF15p human podocytes); assay: Half maximal effective concentration (EC50) of KLF15 reporter activity; type: cell-based; settings: Homo sapiens; KLF15 reporter activity, dose-response; read-out: EC50
Experimental: The EC50 was determined using nonlinear regression and then choosing the equation of Sigmoidal function, 4PL method (X is log(concentration); or the equation of log(agonist) vs. response—variable slope).
as §1

[5] = test system: KLF15 promoter (pEZX-FR03hKLF5p human podocytes); assay: Adriamycin treatment in human podocytes, KLF15 reporter activity; type: cell-based; settings: as compared to DMSO-treated podocytes
Experimental: as §3

[6] = test system: differentiated human podocytes; assay: Actin stress fiber formation and KLF15 immunocytochemistry; type: cell-based; settings: LPS-treated podocytes
Experimental: To determine actin stress fiber formation, differentiated human podocytes were treated with 25 μg/ml LPS or vehicle and 1 μM KLF15 agonist or vehicle control for 24 hours. Subsequently, podocytes were fixed and stained for F-actin using Alexa Fluor 647 Phalloidin (Life Technologies). Fixation, permeabilization, and staining with phalloidin were performed as per the manufacturer's protocol. […] Briefly, phalloidin staining pattern in each cell was classified into the following types: Type A (90% of cell area filled with thick cables), Type B (no thick cables but some cables present), and Type C (no cables visible in the central area of the cell). Unless specified, 100-200 cells were quantified in a blinded manner for each group in three independent experiments.
Differentiated human podocytes were initially washed with phosphate-buffered saline (PBS) and subsequently fixed with 3.7% formaldehyde in the growth medium. Podocytes were washed and permeabilized with 0.25% Triton X-100, and then blocked in 10% normal horse serum (NHS) and incubated with rabbit anti-KLF15 antibody overnight. The next day, cells were washed with PBS and incubated in Donkey anti-Rabbit IgG (H+L) Secondary Antibody, Alexa Fluor™ 568 (Invitrogen) in 10% NHS. Subsequently, cells were washed and incubated with Hoechst (Thermo Fisher Scientific) before mounting.

[7] = test system: KLF15 and Synaptopodin expression; assay: Real-time PCR of KLF15 and synaptopodin in podocytes under LPS; type: cell-based, human; settings: podocytes under LPS conditions, vs DMSO
Experimental: (§4) Total RNA from cells was extracted by using TRIzol (Life Technologies). First-strand cDNA was prepared from total RNA (up to 1.25 μg) using the SuperScript™ IV VILO™ Master Mix (Life Technologies), and cDNA was amplified in triplicate using PowerUp™ SYBR™ Green Master Mix on an ABI QuantStudio3 (Applied Biosystems). Primers for human and mouse genes were designed using NCBI Primer-BLAST and validated for efficiency before application (Table 1). Data were normalized to housekeeping genes (GAPDH or ACTB) and presented as a fold increase compared with RNA isolated from the control group using the ΔΔCT method.

FVB/n mice = assay: LPS-induced proteinuric murine model; type: in vivo, mouse; settings: LPS proteinuric murine model, concurrent treatment, vs DMSO
Experimental: In the LPS-induced proteinuric model, all 8-week-old FVB/n mice were initially treated with LPS [intraperitoneal (IP), 10 μg/g, Sigma-Aldrich] or sterile normal saline (IP) at 0- and 24-hour time points as previously described (17). […] Urine was collected and mice were euthanized 48 hours post-LPS treatment.
Urine albumin was quantified by ELISA using a kit from Bethyl Laboratory Inc. Urine creatinine levels were measured in the same samples using the Creatinine Colorimetric Assay Kit (500701; Cayman Chemical) as per manufacturer's protocol.
Briefly, mice were perfused with PBS containing 2.5 mg/ml iron oxide and 1% BSA. At the end of perfusion, kidneys were removed, decapsulated, minced into 1 mm^3 pieces, and digested in PBS containing 1 mg/ml collagenase A. Digested tissue was subsequently passed through a 100 μm cell strainer and collected by centrifugation. The pellet was resuspended in 1 ml PBS and glomeruli were collected using a magnet. The purity of glomeruli was verified under microscopy. Total RNA was isolated from kidney glomeruli of mice using the RNeasy Kit (Qiagen, Germantown, MD).
as §4
Transmission Electron Microscopy (TEM) was done in the Central Microscopy Imaging Center at Stony Brook Medicine. Briefly, after embedding the kidney tissues in epoxy resin, ultrathin sections were stained with uranyl acetate and lead citrate, then mounted on a copper grid, and photographed under a FEI BioTwin G2 Transmission Electron Microscope with AMT XR-60 CCD digital Camera (FEI).

[8] = as compared to DMSO-treated podocytes

With `CSc1ccc(NC(=O)Nc2ccc(C#N)cn2)cc1` [BT502] the “KLF15 activity as compared to DEX-treated podocytes” value [1] was “higher KLF15 activity”, the KLF15-mutant reporter activity [2] was “induced KLF15 activity” and the “KLF15 activity in the setting of LPS treatment” value [3] was “maintained the elevated KLF15 activity”. The “toxicity to human podocytes” value (human podocytes) was “no observed toxicity” and the “renilla activity (cell viability) in the setting of LPS treatment” value (human podocytes; [8]) was “restored renilla activity”.
`CSc1ccc(NC(=O)Nc2cc(C)ccn2)cc1` [C-7, 1-(4-Methylpyridin-2-yl)-3-(4-methylsulfanylphenyl)urea] was tested, and the fold induction at 1 µM [1] was 3.17, the EC50 [4] was 11.9 nM and the KLF15-mutant reporter activity [2] was “induced similar KLF15 activity”. For the same compound, the “KLF15 activity in the setting of adriamycin (ADR)” value (from here on “KLF15 activity … (ADR)”) [5] was “induced KLF15 activity”, the “KLF15 activity in the setting of LPS treatment” value [3] was “maintained KLF15 activity” and the “cell viability (renilla activity and MTT assay) in the setting of ADR” value (human podocytes; [8]) was “maintained”. The “renilla activity in dose-response” value (human podocytes; higher doses (10^4 nM), relative to DMSO) was “significant increase in renilla activity”, the “KLF15 expression and actin stress fiber formation (immunostaining)” value [6] was “restored KLF15 expression and actin stress fiber formation” and the “KLF15 and Synaptopodin expression” value [7] was “restored”. For the same compound, the albuminuria (FVB/n mice) was “significantly abrogated albuminuria”.
`Nc1ccccc1-n1nc2ccc3ccccc3c2n1` [C-9, 2-benzo[e]benzotriazol-2-ylaniline] was tested, and the fold induction at 1 µM [1] was 2.72, the EC50 [4] was 76.3 nM and the KLF15-mutant reporter activity [2] was “induced similar KLF15 activity”. For the same compound, the “KLF15 activity … (ADR)” value [5] was “induced KLF15 activity”.
For `CSc1ccc(NC(=O)c2ccc(O)cc2)cc1` [BT501], the “KLF15 activity as compared to DEX-treated podocytes” value [1] was “higher KLF15 activity”, the KLF15-mutant reporter activity [2] was “induced KLF15 activity” and the “KLF15 activity in the setting of LPS treatment” value [3] was “maintained the elevated KLF15 activity”. The “toxicity to human podocytes” value (human podocytes) was “no observed toxicity”.
In the case of `O=C(Nc1ccc2ccccc2c1)c1ccc(Cl)cc1Cl` [C-15, 2,4-dichloro-N-(naphthalen-2-yl)benzamide], the fold induction at 1 µM [1] is reported as 2.97, the EC50 [4] is reported as 10.9 nM and the KLF15-mutant reporter activity [2] is reported as “induced similar KLF15 activity”. For the same compound, the “KLF15 activity … (ADR)” value [5] was “induced KLF15 activity”.
